Activity calls are given as the source filed them.
What was measured:
[1] = target: T1, Delta-type opioid receptor (Homo sapiens, UniProt P41143); assay: HTS Image-Based Screen for Antagonists of the DOR Receptor. [Related pubchem assays (depositor defined):AID1777, AID1785, AID1786, AID2133]; assay type: functional
Fatty acid synthase [2] = target: T2, Fatty acid synthase (Homo sapiens, UniProt P49327); assay: FAS thioesterase domain inhibitors, dose response, biochemical, endpoint fluorescence intensity, uHTS hits (AID 624327); assay type: functional;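 note: fluorescence from hydrolysis of an O-methyl fluorescein acyl ester substrate by the enzyme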
[3] = target: T3, Replicative DNA helicase DnaB (Mycobacterium tuberculosis, UniProt P9WMR3); assay: DnaB intein splicing inhibitors, dose response, biochemical, cell-free fluorescence (AID 449749); assay type: functional
T3 sequence (P9WMR3 whole entry): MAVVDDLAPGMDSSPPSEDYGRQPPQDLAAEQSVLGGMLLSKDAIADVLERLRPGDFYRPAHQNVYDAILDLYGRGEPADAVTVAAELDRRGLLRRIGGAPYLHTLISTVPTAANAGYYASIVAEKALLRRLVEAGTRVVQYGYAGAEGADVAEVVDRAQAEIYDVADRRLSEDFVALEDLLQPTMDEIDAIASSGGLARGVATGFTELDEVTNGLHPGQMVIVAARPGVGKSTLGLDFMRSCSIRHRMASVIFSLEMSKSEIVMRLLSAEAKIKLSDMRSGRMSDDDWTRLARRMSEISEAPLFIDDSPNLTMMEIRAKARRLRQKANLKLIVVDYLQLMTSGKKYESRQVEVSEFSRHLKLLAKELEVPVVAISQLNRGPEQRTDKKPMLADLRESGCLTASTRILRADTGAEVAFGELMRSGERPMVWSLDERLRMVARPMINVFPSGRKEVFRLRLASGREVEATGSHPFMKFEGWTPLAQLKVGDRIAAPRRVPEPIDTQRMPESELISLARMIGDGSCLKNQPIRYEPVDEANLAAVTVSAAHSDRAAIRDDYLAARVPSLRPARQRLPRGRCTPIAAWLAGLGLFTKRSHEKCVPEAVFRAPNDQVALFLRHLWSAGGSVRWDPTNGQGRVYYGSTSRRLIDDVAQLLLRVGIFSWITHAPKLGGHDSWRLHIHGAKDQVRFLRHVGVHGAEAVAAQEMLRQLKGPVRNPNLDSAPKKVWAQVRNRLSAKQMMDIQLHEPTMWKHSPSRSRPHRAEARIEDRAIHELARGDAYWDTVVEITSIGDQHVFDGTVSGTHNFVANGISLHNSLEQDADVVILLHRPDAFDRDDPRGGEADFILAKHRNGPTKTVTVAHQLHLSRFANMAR

Beta-galactosidase = Beta-galactosidase (Escherichia coli, UniProt Q8VNN2); assay type: functional
[4] = target: T1, Delta-type opioid receptor; assay: HTS Image-Based Screen for Agonists of the DOR Receptor. [Related pubchem assays (depositor defined):AID1777, AID1786, AID2133]; assay type: functional
[5] = system: Streptococcus sp. 'group A'; assay: growth inhibition of control SK(-) GAS strain, dose response, counter-screen for streptokinase expression inhibitor project, luminescence, kanamycin, BacTiterGlo, confirmation (AID 1900); assay type: functional, organism-based
Beta Lactamase = Beta Lactamase (Pseudomonas aeruginosa, UniProt Q932Y6); assay: beta-lactamase reporter inhibitor potency, dose response, artefact control for TLR9-MyD88 binding inhibitor project, BLA reporter cells, FRET fluorescence (AID 588341); assay type: cell-based;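 note: cell based assay in CHO-K1 cells stably expressing beta-lactamase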
Fatty acid synthase [6] = target: T2, Fatty acid synthase; assay: FAS thioesterase domain inhibitors, dose response, biochemical, kinetic fluorescence intensity (AID 624326); assay type: functional;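 note: rate of fluorescence rise from hydrolysis of a fluorogenic O-methyl fluorescein ester substrate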
[7] = target: Bifunctional protein GlmU (Mycobacterium tuberculosis, UniProt P9WMN3); assay: Inhibitors of Mycobacterial Glucosamine-1-phosphate acetyl transferase (GlmU). Secondary screen.; parameters: species or system Mycobacterium tuberculosis H37Rv
Protein RecA = target: T4, Protein RecA (Mycobacterium tuberculosis, UniProt P9WHJ3); assay: Fluorescence Cell-Free Homogeneous Dose Retest to Identify Inhibitors of RecA-Intein Splicing Activity. [Related pubchem assays (depositor defined):AID2097, AID2223, AID489010, AID492950]; assay type: functional
T4 sequence (P9WHJ3 whole entry): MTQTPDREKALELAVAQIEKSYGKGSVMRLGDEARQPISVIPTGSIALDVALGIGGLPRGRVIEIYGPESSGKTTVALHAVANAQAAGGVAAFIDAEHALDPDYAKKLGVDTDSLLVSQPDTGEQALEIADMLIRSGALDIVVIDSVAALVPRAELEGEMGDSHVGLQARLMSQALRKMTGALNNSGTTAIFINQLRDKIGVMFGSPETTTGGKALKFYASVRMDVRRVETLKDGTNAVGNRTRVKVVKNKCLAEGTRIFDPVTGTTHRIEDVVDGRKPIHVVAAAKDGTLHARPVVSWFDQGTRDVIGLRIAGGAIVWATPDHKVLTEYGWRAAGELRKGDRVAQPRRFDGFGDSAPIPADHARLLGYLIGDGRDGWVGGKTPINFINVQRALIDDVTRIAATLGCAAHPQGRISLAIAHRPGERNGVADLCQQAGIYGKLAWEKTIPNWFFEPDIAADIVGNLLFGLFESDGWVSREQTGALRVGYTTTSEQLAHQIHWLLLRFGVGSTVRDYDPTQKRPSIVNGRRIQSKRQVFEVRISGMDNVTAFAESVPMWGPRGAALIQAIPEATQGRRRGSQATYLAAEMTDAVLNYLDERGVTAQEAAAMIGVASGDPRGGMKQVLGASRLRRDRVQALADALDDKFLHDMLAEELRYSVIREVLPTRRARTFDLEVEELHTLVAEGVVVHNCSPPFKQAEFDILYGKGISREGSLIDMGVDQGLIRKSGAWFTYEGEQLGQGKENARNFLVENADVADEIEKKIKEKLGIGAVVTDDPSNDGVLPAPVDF

[8] = target: T5, Kappa-type opioid receptor (Homo sapiens, UniProt P41145); assay type: functional
CHO = assay: cytotoxicity in TLR9-MyD88 CHO cells, dose response, cytotoxicity control for TLR9-MyD88 binding inhibitor project, cell-based, luminescence (AID 588339); assay type: functional, hamster; conditions: Cricetulus griseus;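 note: CHO cells stably coexpressing TLR9 and MyD88 fusions from primary screen; compound exposure lasted 48 hours before viability readout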
[9] = target: Induced myeloid leukemia cell differentiation protein Mcl-1 (Homo sapiens, UniProt Q07820); assay type: functional
Streptococcus = assay: Group A Streptococcus viability loss, dose response, counter-screen for streptokinase expression inhibitor project, luminescence, BacTiterGlo (AID 1915); assay type: functional, organism-based;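 note: potency for reduction of bacterial viability or growth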
[10] = target: T5, Kappa-type opioid receptor; assay type: functional; remark: listed apart in the source
Mu-type opioid receptor = Mu-type opioid receptor (Homo sapiens, UniProt P35372); assay: HTS Image-Based Screen for Agonists of the MOR Receptor. [Related pubchem assays (depositor defined):AID1777, AID1785, AID1786, AID2133]; assay type: functional;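 note: imaging of beta-arrestin GFP recruitment into spots after receptor activation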
Streptokinase A = target: T6, Streptokinase A (Streptococcus pyogenes serotype M1, UniProt P10520); assay: S. pyogenes streptokinase expression inhibitors, potency, dose response, plasminogen activation absorbance, OD405 (AID 1914); assay type: functional, Streptococcus pyogenes M1 GAS;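 note: secreted streptokinase activity via plasminogen activation per viability signal from cell pellet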
T6 sequence (P10520 whole entry): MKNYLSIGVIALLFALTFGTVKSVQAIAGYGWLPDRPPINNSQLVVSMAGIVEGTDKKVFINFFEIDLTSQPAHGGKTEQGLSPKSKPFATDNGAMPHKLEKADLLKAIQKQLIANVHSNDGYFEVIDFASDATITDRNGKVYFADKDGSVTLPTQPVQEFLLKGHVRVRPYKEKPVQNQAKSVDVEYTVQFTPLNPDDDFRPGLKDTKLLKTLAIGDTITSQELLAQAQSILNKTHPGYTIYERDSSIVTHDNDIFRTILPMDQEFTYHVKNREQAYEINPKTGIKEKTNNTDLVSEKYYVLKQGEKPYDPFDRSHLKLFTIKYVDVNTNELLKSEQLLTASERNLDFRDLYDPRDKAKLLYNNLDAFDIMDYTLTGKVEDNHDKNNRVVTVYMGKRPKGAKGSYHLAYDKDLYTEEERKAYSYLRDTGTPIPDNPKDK

Insulin-degrading enzyme [11] = target: T7, Insulin-degrading enzyme (Homo sapiens, UniProt P14735); assay: activators of recombinant IDE enzyme, dose response, counter-screen for IDE activator project, biochemical, fluorescence polarization (AID 588681)
T7 sequence (P14735 whole entry): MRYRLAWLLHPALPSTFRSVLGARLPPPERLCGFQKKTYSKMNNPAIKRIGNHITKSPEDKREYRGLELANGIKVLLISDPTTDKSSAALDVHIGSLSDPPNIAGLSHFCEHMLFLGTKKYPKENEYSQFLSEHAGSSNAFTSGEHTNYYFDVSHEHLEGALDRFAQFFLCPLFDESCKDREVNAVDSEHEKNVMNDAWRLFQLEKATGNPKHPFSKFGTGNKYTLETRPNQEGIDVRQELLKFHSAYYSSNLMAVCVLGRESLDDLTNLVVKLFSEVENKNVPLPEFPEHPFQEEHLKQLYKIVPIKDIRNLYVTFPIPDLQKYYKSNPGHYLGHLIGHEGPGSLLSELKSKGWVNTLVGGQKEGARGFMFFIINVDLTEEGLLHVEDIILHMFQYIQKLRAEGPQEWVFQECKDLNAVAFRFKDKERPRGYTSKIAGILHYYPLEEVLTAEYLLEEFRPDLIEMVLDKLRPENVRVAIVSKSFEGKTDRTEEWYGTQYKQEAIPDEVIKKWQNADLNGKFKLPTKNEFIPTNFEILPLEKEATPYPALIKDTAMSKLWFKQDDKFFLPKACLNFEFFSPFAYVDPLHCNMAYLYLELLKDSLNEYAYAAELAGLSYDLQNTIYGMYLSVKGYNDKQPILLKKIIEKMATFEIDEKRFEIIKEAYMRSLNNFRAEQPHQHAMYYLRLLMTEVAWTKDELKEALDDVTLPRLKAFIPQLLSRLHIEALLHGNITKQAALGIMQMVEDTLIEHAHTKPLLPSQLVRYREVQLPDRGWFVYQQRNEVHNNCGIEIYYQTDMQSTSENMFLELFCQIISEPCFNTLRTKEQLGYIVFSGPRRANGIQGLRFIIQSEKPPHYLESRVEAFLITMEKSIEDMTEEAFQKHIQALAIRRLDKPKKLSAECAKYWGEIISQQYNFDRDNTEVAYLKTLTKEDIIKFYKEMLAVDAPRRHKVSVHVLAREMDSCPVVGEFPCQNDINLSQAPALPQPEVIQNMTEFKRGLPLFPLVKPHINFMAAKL

Bcl-2-related protein A1 = target: T8, Bcl-2-related protein A1 (Mus musculus, UniProt Q07440); assay type: functional;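 note: confirmatory dose–response counterscreen on Bfl-1, used to check hits from a UBC13 polyubiquitin inhibitor campaign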
T8 sequence (Q07440 whole entry): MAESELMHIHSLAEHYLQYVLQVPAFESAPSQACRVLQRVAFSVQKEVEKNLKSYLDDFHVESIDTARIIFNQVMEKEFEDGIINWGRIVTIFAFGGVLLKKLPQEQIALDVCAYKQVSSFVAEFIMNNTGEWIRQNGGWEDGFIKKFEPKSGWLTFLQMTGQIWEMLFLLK

HEK293 [12] = assay: HEK cell cytotoxicity by LDH release, dose response, cytotoxicity control for IDE activator project, fluorescence, HEK cells (AID 588440); assay type: functional, cell-based; conditions: Homo sapiens;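 note: cytotoxicity by LDH release measuring loss of membrane integrity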
HEK293 [13] = assay: optical interference in Abeta FP readout, dose response, artefact control for IDE activator project, biochemical, fluorescence polarization (AID 588442); assay type: functional, cell-based; conditions: Homo sapiens
[14] = target: T9, Ubiquitin-conjugating enzyme E2 N (Homo sapiens, UniProt P61088); assay type: functional
T9 sequence (P61088 whole entry): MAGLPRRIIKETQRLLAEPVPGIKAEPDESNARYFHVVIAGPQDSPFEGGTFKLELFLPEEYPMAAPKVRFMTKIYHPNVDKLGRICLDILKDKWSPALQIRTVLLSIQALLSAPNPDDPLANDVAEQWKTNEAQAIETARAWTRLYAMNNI

Insulin-degrading enzyme [15] = target: T7, Insulin-degrading enzyme; assay: activators of endogenous IDE in HEK cells, dose response, cell-based, fluorescence polarization (AID 588439); assay type: functional
[16] = target: T9, Ubiquitin-conjugating enzyme E2 N; assay type: functional; remark: listed apart in the source

T2 sequence (P49327 whole entry, the tested form may be a part): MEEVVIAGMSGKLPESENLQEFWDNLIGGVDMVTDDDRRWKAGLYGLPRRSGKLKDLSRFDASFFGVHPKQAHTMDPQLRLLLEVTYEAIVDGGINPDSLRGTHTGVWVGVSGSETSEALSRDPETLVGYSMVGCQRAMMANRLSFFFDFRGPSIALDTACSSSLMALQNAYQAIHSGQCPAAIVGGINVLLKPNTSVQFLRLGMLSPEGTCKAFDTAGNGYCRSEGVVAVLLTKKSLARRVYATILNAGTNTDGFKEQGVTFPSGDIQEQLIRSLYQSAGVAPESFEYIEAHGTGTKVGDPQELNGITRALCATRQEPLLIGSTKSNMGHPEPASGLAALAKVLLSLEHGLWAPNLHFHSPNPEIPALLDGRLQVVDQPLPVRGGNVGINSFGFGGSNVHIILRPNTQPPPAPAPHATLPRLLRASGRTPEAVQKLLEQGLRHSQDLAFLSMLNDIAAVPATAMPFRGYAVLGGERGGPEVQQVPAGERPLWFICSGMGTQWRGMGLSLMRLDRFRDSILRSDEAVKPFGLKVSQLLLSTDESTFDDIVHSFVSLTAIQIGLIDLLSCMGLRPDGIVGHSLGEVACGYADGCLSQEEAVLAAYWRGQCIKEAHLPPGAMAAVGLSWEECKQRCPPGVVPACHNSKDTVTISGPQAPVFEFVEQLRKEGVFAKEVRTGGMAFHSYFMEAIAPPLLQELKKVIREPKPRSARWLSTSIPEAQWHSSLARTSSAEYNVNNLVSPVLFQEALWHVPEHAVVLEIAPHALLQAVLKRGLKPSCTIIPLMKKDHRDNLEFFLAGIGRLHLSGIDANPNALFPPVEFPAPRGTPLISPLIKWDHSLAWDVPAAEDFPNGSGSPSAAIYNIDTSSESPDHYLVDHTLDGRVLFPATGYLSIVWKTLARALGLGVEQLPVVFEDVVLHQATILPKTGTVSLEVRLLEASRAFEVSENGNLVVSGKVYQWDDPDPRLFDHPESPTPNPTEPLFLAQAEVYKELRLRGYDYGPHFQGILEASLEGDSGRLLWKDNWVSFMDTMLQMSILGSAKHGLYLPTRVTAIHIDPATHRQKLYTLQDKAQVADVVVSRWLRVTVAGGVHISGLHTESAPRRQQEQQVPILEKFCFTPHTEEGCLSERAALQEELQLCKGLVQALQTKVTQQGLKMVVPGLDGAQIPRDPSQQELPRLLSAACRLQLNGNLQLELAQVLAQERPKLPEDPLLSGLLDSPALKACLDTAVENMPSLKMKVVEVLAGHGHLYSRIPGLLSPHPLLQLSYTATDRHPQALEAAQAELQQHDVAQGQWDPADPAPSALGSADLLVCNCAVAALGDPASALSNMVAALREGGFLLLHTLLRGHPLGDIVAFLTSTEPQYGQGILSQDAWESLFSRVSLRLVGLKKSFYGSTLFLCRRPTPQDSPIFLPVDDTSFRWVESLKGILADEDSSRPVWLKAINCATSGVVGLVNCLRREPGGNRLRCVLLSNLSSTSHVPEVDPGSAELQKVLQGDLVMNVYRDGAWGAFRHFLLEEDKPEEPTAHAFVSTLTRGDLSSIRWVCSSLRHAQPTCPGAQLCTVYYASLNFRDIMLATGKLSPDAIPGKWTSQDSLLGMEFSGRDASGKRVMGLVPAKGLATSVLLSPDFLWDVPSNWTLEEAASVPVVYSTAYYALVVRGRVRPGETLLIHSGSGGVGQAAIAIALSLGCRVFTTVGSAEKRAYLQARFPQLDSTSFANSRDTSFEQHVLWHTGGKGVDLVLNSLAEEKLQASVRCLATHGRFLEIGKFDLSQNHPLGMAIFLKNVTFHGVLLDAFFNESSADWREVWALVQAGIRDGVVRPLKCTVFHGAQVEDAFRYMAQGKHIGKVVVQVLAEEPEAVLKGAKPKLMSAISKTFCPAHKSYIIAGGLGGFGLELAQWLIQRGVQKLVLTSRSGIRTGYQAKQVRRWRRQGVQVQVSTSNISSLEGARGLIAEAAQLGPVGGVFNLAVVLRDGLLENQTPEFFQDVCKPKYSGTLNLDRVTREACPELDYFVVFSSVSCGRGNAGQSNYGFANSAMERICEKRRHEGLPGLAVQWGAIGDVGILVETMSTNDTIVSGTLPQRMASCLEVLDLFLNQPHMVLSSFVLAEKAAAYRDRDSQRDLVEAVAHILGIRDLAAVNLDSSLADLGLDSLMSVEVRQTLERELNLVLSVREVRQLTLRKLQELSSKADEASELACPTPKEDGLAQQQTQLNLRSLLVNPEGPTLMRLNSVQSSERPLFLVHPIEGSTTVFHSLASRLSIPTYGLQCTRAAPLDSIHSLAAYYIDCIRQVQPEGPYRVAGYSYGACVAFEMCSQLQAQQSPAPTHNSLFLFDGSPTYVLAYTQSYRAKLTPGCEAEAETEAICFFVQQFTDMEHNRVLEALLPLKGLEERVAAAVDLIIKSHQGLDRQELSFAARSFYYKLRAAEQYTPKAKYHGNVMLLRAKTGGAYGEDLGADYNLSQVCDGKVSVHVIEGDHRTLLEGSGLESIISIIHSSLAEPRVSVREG
T5 sequence (P41145 whole entry, the tested form may be a part): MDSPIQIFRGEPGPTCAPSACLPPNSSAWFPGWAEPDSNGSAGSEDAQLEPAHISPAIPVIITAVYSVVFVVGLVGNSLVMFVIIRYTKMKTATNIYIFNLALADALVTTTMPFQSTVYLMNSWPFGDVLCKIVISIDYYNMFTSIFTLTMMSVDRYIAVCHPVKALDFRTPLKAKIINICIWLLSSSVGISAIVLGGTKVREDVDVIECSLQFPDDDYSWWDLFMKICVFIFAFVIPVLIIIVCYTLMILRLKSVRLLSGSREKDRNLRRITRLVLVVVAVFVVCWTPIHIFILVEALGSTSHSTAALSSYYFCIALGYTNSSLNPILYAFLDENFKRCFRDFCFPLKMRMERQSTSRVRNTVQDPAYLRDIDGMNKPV
T1 sequence (P41143 whole entry, the tested form may be a part): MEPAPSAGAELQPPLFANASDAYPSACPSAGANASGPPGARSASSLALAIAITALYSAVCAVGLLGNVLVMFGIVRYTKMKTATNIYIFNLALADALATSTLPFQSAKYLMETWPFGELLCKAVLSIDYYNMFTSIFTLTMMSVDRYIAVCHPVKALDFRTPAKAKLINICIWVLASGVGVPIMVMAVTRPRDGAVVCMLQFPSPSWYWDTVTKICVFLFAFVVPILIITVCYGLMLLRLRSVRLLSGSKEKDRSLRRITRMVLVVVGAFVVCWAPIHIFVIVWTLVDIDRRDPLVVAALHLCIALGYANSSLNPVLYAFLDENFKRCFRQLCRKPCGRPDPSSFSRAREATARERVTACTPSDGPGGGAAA
Beta-galactosidase, sequence (Q8VNN2 whole entry): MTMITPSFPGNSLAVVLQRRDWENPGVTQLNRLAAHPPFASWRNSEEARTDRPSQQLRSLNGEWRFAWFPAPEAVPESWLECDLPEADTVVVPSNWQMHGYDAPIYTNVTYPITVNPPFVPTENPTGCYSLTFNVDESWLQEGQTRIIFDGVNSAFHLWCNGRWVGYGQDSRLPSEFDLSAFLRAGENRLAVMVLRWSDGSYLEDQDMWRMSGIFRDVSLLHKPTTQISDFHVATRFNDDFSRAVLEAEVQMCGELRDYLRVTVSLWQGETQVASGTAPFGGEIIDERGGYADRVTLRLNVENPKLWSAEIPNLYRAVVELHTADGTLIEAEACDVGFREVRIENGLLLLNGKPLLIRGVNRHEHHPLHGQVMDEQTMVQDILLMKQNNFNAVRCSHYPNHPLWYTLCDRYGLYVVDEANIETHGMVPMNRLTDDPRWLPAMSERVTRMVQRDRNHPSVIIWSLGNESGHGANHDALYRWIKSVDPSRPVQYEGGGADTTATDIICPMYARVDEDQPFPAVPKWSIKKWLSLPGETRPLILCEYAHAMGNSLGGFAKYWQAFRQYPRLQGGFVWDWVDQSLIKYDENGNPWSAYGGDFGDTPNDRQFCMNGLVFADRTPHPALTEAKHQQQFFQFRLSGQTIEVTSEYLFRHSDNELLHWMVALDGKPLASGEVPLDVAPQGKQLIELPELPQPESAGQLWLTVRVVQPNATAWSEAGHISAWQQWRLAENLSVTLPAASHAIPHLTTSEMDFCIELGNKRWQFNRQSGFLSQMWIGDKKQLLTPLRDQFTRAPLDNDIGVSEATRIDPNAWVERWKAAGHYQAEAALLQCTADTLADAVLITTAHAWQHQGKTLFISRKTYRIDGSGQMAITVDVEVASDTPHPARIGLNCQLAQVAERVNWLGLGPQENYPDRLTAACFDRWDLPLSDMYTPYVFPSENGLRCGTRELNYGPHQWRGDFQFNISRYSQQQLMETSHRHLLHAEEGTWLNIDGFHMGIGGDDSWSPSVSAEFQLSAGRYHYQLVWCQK
Bifunctional protein GlmU, sequence (P9WMN3 whole entry): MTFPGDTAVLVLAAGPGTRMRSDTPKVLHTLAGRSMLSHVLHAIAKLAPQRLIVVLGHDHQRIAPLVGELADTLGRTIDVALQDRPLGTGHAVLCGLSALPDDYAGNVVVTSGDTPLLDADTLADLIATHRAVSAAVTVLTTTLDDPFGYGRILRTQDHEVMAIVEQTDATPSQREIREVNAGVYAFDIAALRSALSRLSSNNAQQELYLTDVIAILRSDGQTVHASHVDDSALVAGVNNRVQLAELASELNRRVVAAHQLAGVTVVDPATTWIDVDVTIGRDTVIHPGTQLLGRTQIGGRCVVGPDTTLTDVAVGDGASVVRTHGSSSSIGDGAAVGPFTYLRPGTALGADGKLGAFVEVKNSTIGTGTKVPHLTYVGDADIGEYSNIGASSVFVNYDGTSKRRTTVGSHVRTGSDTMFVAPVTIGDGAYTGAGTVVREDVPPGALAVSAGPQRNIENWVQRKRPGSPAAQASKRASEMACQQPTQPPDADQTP
Beta Lactamase, sequence (Q932Y6 whole entry, the tested form may be a part): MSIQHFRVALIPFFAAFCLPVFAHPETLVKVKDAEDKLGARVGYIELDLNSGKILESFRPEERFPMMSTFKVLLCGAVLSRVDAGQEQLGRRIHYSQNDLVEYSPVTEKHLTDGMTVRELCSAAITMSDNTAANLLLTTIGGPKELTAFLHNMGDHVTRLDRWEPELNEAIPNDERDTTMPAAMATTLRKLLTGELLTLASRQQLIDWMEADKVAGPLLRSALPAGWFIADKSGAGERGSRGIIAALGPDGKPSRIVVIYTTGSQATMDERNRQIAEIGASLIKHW

Cc1nnc(Sc2cc(NCCCO)c([N+](=O)[O-])c3nonc23)s1
> 32 µM: IC50 [8]
active: IC50 (Fatty acid synthase [2]) 3.78 µM | AC50 [3] 2.07 µM | EC50 [5] 6.33 µM | IC50 (Fatty acid synthase [6]) 3.99 µM | IC50 [7] 77.8 µM | EC50 (Protein RecA) 1.85 µM | IC50 (CHO) 3.37 µM | IC50 [9] 3.11 µM | EC50 (Streptococcus) 7.62 µM | IC50 [10] 6.15 µM
inactive: IC50 [1] > 32 µM | EC50 (Beta-galactosidase) > 31.5 µM | EC50 [4] > 32 µM | IC50 (Beta Lactamase) 10.9 µM | EC50 (Mu-type opioid receptor) > 32 µM
inconclusive: EC50 (Streptokinase A) 21.2 µM

C#CCOCCOCCOCCNc1nc(N2CCN(C(=O)CCCCCCCCCCNC(=O)[C@H](CCCCN)n3cc(C)nn3)CC2)nc(N2CCN(C(=O)CCCCCCCCCCNC(=O)[C@H](CO)n3cc(CCCSC)nn3)CC2)n1
active: EC50 (Insulin-degrading enzyme [11]) > 6.08 µM | IC50 (HEK293 [12]) 9.88 µM | IC50 [14] 4.05 µM | IC50 [16] 6.96 µM
inactive: IC50 (Bcl-2-related protein A1) > 20 µM | EC50 (HEK293 [13]) > 55.9 µM | EC50 (Insulin-degrading enzyme [15]) > 54.7 µM

Source: ChEMBL document CHEMBL1201862, “PubChem BioAssay data set” (2004)
